In patent publication US8461328B2, “Tricyclic heterocyclic compounds, compositions and methods of use thereof” (Genentech, Inc., priority 2010, dated 2013):

Experiments:
Format in all cases: biochemical
TYK2 = molecular target: T1, TYK2 (Homo sapiens, UniProt P29597); test: TYK2 inhibition (Table 4)
T1 construct: made in house; host or cells: SF9 insect cells (baculovirus)
T1 sequence (P29597 873-1187): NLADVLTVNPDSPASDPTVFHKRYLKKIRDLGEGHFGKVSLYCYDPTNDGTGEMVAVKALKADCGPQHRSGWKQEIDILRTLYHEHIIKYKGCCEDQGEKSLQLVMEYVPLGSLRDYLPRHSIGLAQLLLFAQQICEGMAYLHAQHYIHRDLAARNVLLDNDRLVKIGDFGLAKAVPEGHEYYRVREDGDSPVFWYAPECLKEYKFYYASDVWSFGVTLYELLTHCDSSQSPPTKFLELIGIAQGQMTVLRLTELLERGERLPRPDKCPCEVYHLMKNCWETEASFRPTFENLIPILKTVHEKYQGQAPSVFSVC

JAK2 = molecular target: T2, JAK2 (Homo sapiens, UniProt O60674); test: JAK2 inhibition (Table 4); settings: read-out: JAK2 Ki
T2 construct: made in house; host or cells: SF9 insect cells (baculovirus)

JAK1 = molecular target: T3, JAK1 (Homo sapiens, UniProt P23458); test: JAK1 inhibition (Table 4); settings: read-out: JAK1 Ki
T3 construct: made in house; host or cells: SF9 insect cells (baculovirus)

JAK3 = molecular target: T4, JAK3 (Homo sapiens, UniProt P52333); test: JAK3 inhibition (Table 4); settings: read-out: JAK3 Ki
T4 construct: made in house; host or cells: SF9 insect cells (baculovirus)
T4 sequence (P52333 783-1124): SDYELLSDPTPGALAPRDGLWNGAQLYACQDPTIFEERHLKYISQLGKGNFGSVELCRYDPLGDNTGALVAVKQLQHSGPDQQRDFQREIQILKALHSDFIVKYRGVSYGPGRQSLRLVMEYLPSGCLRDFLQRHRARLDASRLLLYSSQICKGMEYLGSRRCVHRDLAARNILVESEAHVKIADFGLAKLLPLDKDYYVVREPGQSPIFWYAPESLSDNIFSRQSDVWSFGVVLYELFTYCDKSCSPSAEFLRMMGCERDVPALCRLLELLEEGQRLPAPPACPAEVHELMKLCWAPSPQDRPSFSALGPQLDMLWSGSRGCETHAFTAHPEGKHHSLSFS

T2 sequence (O60674 812-1132): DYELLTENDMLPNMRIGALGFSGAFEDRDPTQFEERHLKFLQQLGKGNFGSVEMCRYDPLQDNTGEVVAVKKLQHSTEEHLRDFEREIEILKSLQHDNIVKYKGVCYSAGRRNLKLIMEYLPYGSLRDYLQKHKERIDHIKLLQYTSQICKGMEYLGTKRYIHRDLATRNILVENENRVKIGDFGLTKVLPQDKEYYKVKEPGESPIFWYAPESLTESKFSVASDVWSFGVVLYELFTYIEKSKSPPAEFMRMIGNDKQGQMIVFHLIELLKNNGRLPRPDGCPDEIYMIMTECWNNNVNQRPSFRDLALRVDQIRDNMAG
T3 sequence (P23458 852-1154): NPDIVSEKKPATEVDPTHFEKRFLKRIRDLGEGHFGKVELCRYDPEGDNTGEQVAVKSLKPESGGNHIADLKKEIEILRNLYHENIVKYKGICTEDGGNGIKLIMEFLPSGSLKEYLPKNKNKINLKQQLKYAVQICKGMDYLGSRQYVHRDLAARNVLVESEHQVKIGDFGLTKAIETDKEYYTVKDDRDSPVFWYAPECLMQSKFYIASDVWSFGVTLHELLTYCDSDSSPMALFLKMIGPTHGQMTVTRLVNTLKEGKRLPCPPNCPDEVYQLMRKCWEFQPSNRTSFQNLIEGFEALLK

CCN1CCC(n2cnc3cnc4[nH]ccc4c32)C(F)(F)C1 (racemic) [Example 532, 1-(1-Ethyl-3,3-difluoro-piperidin-4-yl)-1,6-dihydro-1,3,5,6-tetraaza-as-indacene] showed a Ki (TYK2) of 23.8 nM, a Ki (JAK2) of 6 nM and a Ki (JAK1) of 2.86 nM. It also gave a Ki (JAK3) of 30.4 nM.

CC1(n2cnc3cnc4[nH]ccc4c32)CCN(C(=O)CC#N)CC1 [Example 579, 3-[4-Methyl-4-(6H-1,2,3,5,6-tetraaza-as-indacen-1-yl)-piperidin-1-yl]-3-oxo-propionitrile] was tested, and the Ki (TYK2) was 329 nM, the Ki (JAK2) was 483 nM and the Ki (JAK1) was 106 nM. For the same compound, the Ki (JAK3) was 1360 nM.

CC(=O)N(C)CCc1nc2cnc3[nH]ccc3c2n1C1CCN(C(C)CC#N)CC1 (racemic) [Example 398, N-(2-{1-[1-(2-Cyano-1-methyl-ethyl)-piperidin-4-yl]-1,6-dihydro-1,3,5,6-tetraaza-as-indacen-2-yl}-ethyl)-N-methyl-acetamide] gave a Ki (TYK2) of 241 nM, a Ki (JAK2) of 47 nM and a Ki (JAK1) of 20.8 nM. For the same compound, the Ki (JAK3) was 179 nM.

With O=C(Cc1nc2cnc3[nH]ccc3c2n1C1CCN(Cc2ccccc2)CC1)N1CCCC1 [Example 100, 2-[1-(1-Benzyl-piperidin-4-yl)-1,6-dihydro-1,3,5,6-tetraaza-as-indacen-2-yl]-1-pyrrolidin-1-yl-ethanone] the Ki (TYK2) was 2100 nM, the Ki (JAK2) was 99.2 nM and the Ki (JAK1) was 22.1 nM. It also gave a Ki (JAK3) of 16.9 nM.

In the case of CS(=O)(=O)CCN1CCC(n2cnc3cnc4[nH]ccc4c32)CC1 [Example 59, 1-[1-(2-Methanesulfonyl-ethyl)-piperidin-4-yl]-1,6-dihydro-1,3,5,6-tetraaza-as-indacene], the Ki (TYK2) is reported as 30.5 nM, the Ki (JAK2) is reported as 6.01 nM and the Ki (JAK1) is reported as 1.96 nM. For the same compound, the Ki (JAK3) was 27.7 nM.

N#CCCn1cc2c(n1)CCC(n1cnc3cnc4[nH]ccc4c31)C2 (racemic) [Example 991, 3-[5-(6H-1,3,5,6-Tetraaza-as-indacen-1-yl)-4,5,6,7-tetrahydro-indazol-2-yl]-propionitrile] was tested, and the Ki (TYK2) was 58.6 nM, the Ki (JAK2) was 11.7 nM and the Ki (JAK1) was 9.26 nM. For the same compound, the Ki (JAK3) was 109 nM.

With CCc1nccn1CCc1nc2cnc3[nH]ccc3c2n1C1CCN(CCC#N)CC1 [Example 815, 3-(4-{2-[2-(2-Ethyl-imidazol-1-yl)-ethyl]-6H-1,3,5,6-tetraaza-as-indacen-1-yl}-piperidin-1-yl)-propionitrile] the Ki (TYK2) was 254 nM, the Ki (JAK2) was 91.8 nM and the Ki (JAK1) was 23.5 nM. It also gave a Ki (JAK3) of 191 nM.

CS(=O)(=O)NC1CCC(n2cnc3cnc4[nH]ccc4c32)C1 (racemic) [Example 630, Racemic trans N-[3-(6H-1,2,3,5,6-tetraaza-as-indacen-1-yl)-cyclopentyl]-methanesulfonamide] was tested, and the Ki (TYK2) was 25.8 nM, the Ki (JAK2) was 6.62 nM and the Ki (JAK1) was 2.59 nM. The Ki (JAK3) was 18.4 nM.

With CNC(=O)OC1CCC(n2cnc3cnc4[nH]ccc4c32)CC1 (centres unmarked) [Example 769, Methyl-carbamic acid 4-(6H-1,3,5,6-tetraaza-as-indacen-1-yl)-cyclohexyl ester] the Ki (TYK2) was 62.5 nM, the Ki (JAK2) was 16.6 nM and the Ki (JAK1) was 9.6 nM. For the same compound, the Ki (JAK3) was 104 nM.

O=C1CCC2(CCC(n3cnc4cnc5[nH]ccc5c43)CC2)N1 (centres unmarked) [Example 152, 8-(6H-1,2,3,5,6-Tetraaza-as-indacen-1-yl)-1-aza-spiro[4.5]decan-2-one] showed a Ki (TYK2) of 13.8 nM, a Ki (JAK2) of 4.73 nM and a Ki (JAK1) of 3.14 nM. For the same compound, the Ki (JAK3) was 39.7 nM.

With O=C1CCCN1CCc1nc2cnc3[nH]ccc3c2n1C1CCCCC1 [Example 801, 1-[2-(1-Cyclohexyl-1,6-dihydro-1,3,5,6-tetraaza-as-indacen-2-yl)-ethyl]-pyrrolidin-2-one] the Ki (TYK2) was 64.9 nM, the Ki (JAK2) was 51.5 nM and the Ki (JAK1) was 7.74 nM. For the same compound, the Ki (JAK3) was 76.8 nM.

For N#Cc1cccc(CN2CCC(n3cnc4cnc5[nH]ccc5c43)CC2)n1 [Example 304, 6-[4-(6H-1,3,5,6-Tetraaza-as-indacen-1-yl)-piperidin-1-ylmethyl]-pyridine-2-carbonitrile], the Ki (TYK2) was 52.4 nM, the Ki (JAK2) was 3.55 nM and the Ki (JAK1) was 3.32 nM. The Ki (JAK3) was 20.4 nM.

In the case of N#CCCN1CCC(n2c(Cc3ccc(C(N)=O)cc3)nc3cnc4[nH]ccc4c32)CC1 [Example 406, 4-{1-[1-(2-Cyano-ethyl)-piperidin-4-yl]-1,6-dihydro-1,3,5,6-tetraaza-as-indacen-2-ylmethyl}-benzamide], the Ki (TYK2) is reported as 648 nM, the Ki (JAK2) is reported as 204 nM and the Ki (JAK1) is reported as 67.8 nM. The Ki (JAK3) was 614 nM.

Compound c1ccc(CN2[C@@H]3CC[C@H]2C[C@H](n2cnc4cnc5[nH]ccc5c42)C3)cc1 [Example 81] has a Ki (TYK2) of 222 nM, a Ki (JAK2) of 15.8 nM and a Ki (JAK1) of 23 nM. It also gave a Ki (JAK3) of 297 nM.

With OC1CCCC(n2cnc3cnc4[nH]ccc4c32)C1 (single isomer, unassigned) [Example 559, 3-(6H-1,3,5,6-Tetraaza-as-indacen-1-yl)-cyclohexanol] the Ki (TYK2) was 38.5 nM, the Ki (JAK2) was 24 nM and the Ki (JAK1) was 10.3 nM. It also gave a Ki (JAK3) of 52.9 nM.

Compound CNc1nc2cnc3[nH]ccc3c2n1C1CCCOC1 (centres unmarked) [Example 773, Methyl-[1-(tetrahydro-pyran-3-yl)-1,6-dihydro-1,3,5,6-tetraaza-as-indacen-2-yl]-amine] has a Ki (TYK2) of 149 nM, a Ki (JAK2) of 81.4 nM and a Ki (JAK1) of 12.2 nM. For the same compound, the Ki (JAK3) was 126 nM.

In the case of Cc1nc2cnc3[nH]ccc3c2n1C1CCc2nc[nH]c2C1 (racemic) [Example 990, 2-Methyl-1-(4,5,6,7-tetrahydro-3H-benzoimidazol-5-yl)-1,6-dihydro-1,3,5,6-tetraaza-as-indacene], the Ki (TYK2) is reported as 325 nM, the Ki (JAK2) is reported as 204 nM and the Ki (JAK1) is reported as 84.6 nM. For the same compound, the Ki (JAK3) was 91.9 nM.

Compound CC(=O)N1CCC(N[C@H]2CC[C@H](n3cnc4cnc5[nH]ccc5c43)CC2)CC1 [Example 555, trans 1-{4-[4-(6H-1,3,5,6-Tetraaza-as-indacen-1-yl)-cyclohexylamino]-piperidin-1-yl}-ethanone] has a Ki (TYK2) of 302 nM, a Ki (JAK2) of 276 nM and a Ki (JAK1) of 33 nM. The Ki (JAK3) was 491 nM.

With CC(C)CC(=O)N[C@H]1CC[C@H](n2cnc3cnc4[nH]ccc4c32)CC1 [Example 215, 3-Methyl-N-[4-(6H-1,2,3,5,6-tetraaza-as-indacen-1-yl)-cyclohexyl]-butyramide] the Ki (TYK2) was 92.7 nM, the Ki (JAK2) was 7.88 nM and the Ki (JAK1) was 1.89 nM. For the same compound, the Ki (JAK3) was 55.9 nM.

Cc1nc2cnc3[nH]ccc3c2n1[C@@H]1C[C@@H]2CC[C@H]1O2 (relative stereo) [Example 684, Endo-2-Methyl-1-(7-oxa-bicyclo[2.2.1]hept-2-yl)-1,6-dihydro-1,2,3,5,6-tetraaza-as-indacene] was tested, and the Ki (TYK2) was 37.8 nM, the Ki (JAK2) was 21.6 nM and the Ki (JAK1) was 7.57 nM. It also gave a Ki (JAK3) of 11.5 nM.

CC(C)NC(=O)[C@H]1CC[C@H](n2nnc3cnc4[nH]ccc4c32)CC1 [Example 165, Trans 4-(6H-1,2,3,5,6-Pentaaza-as-indacen-1-yl)-cyclohexanecarboxylic acid isopropylamide] showed a Ki (TYK2) of 550 nM, a Ki (JAK2) of 177 nM and a Ki (JAK1) of 48.9 nM. It also gave a Ki (JAK3) of 802 nM.

OCc1nc2cnc3[nH]ccc3c2n1C1CCCCC1 [Example 675, (1-Cyclohexyl-1,6-dihydro-1,2,3,5,6-tetraaza-as-indacen-2-yl)-methanol] showed a Ki (TYK2) of 1.78 nM, a Ki (JAK2) of 6.96 nM and a Ki (JAK1) of 1.21 nM. It also gave a Ki (JAK3) of 11.4 nM.

Compound CC(C)(C)OC(=O)N1CC(n2cnc3cnc4[nH]ccc4c32)C1 [Example 3, 3-(6H-1,2,3,5,6-Tetraaza-as-indacen-1-yl)-azetidine-1-carboxylic acid tert-butyl ester] has a Ki (TYK2) of 1640 nM, a Ki (JAK2) of 191 nM and a Ki (JAK1) of 348 nM. It also gave a Ki (JAK3) of 905 nM.

Work on N#Cc1nc2cnc3[nH]ccc3c2n1C1CCN(Cc2cccnc2)CC1 [Example 290, 1-(1-Pyridin-3-ylmethyl-piperidin-4-yl)-1,6-dihydro-1,3,5,6-tetraaza-as-indacene-2-carbonitrile] yielded a Ki (TYK2) of 204 nM, a Ki (JAK2) of 4.88 nM and a Ki (JAK1) of 3.94 nM. For the same compound, the Ki (JAK3) was 6.27 nM.

In the case of N#CCC(=O)N1CCCC(n2c(CC3CC3)nc3cnc4[nH]ccc4c32)C1 (centres unmarked) [Example 676, 3-[3-(2-Cyclopropylmethyl-6H-1,2,3,5,6-tetraaza-as-indacen-1-yl)-piperidin-1-yl]-3-oxo-propionitrile], the Ki (TYK2) is reported as 22.1 nM, the Ki (JAK2) is reported as 7.87 nM and the Ki (JAK1) is reported as 1.36 nM. The Ki (JAK3) was 40.2 nM.

In the case of c1cc2c(ncc3ncn(C4CCCOC4)c32)[nH]1 (single isomer, unassigned) [Example 466, 1-(Tetrahydro-pyran-3-yl)-1,6-dihydro-1,3,5,6-tetraaza-as-indacene], the Ki (TYK2) is reported as 61.8 nM, the Ki (JAK2) is reported as 24.6 nM and the Ki (JAK1) is reported as 9.66 nM. It also gave a Ki (JAK3) of 75.6 nM.

With CC(C)CC(=O)N1CCC[C@@H](n2c([C@@H](C)O)nc3cnc4[nH]ccc4c32)C1 [Example 793, 1-{(R)-3-[2-((R)-1-Hydroxy-ethyl)-6H-1,3,5,6-tetraaza-as-indacen-1-yl]-piperidin-1-yl}-3-methyl-butan-1-one] the Ki (TYK2) was 2010 nM, the Ki (JAK2) was 2280 nM and the Ki (JAK1) was 267 nM. For the same compound, the Ki (JAK3) was 2360 nM.

c1cc2c(ncc3ncn(CC4CCNCC4)c32)[nH]1 [Example 255, 1-Piperidin-4-ylmethyl-1,6-dihydro-1,3,5,6-tetraaza-as-indacene] showed a Ki (TYK2) of 1120 nM, a Ki (JAK2) of 490 nM and a Ki (JAK1) of 278 nM. The Ki (JAK3) was 479 nM.

O=S(=O)(Cc1ccccc1)N1CC[C@@H](n2cnc3cnc4[nH]ccc4c32)C1 [Example 435, 1-((R)-1-Phenylmethanesulfonyl-pyrrolidin-3-yl)-1,6-dihydro-1,3,5,6-tetraaza-as-indacene] was tested, and the Ki (TYK2) was 265 nM, the Ki (JAK2) was 28.1 nM and the Ki (JAK1) was 32.1 nM. The Ki (JAK3) was 226 nM.
